Calls of active or inactive are those of the source. How the calls were made is not given here.
Tested on: CCRIS mutagenicity, Ames/micronucleus/aberration tests
Test: CCRIS mutagenicity studies
[1] = Test System: AMES SALMONELLA TYPHIMURIUM, Strain/Indicator: TA98, Metabolic Activation: NONE, Method: STANDARD PLATE
[2] = Test System: AMES SALMONELLA TYPHIMURIUM, Strain/Indicator: TA98, Metabolic Activation: RAT, LIVER, S-9, AROCLOR 1254, Method: STANDARD PLATE
[3] = Test System: AMES SALMONELLA TYPHIMURIUM, Strain/Indicator: TA100, Metabolic Activation: NONE, Method: STANDARD PLATE
[4] = Test System: AMES SALMONELLA TYPHIMURIUM, Strain/Indicator: TA100, Metabolic Activation: RAT, LIVER, S-9, AROCLOR 1254, Method: STANDARD PLATE
[5] = Test System: AMES SALMONELLA TYPHIMURIUM, Strain/Indicator: TA102, Metabolic Activation: NONE, Method: STANDARD PLATE
[6] = Test System: AMES SALMONELLA TYPHIMURIUM, Strain/Indicator: TA1535, Metabolic Activation: NONE, Method: PREINCUBATION
[7] = Test System: AMES SALMONELLA TYPHIMURIUM, Strain/Indicator: TA1535, Metabolic Activation: NONE, Method: STANDARD PLATE

`CCC(CCC(C)=O)COC(=O)c1ccccc1C(=O)O` (centres undefined) was tested, and the mutagenic call (Test System: AMES SALMONELLA TYPHIMURIUM, Strain/Indicator: TA97, Metabolic Activation: NONE, Method: STANDARD PLATE) was “inactive; negative”, the mutagenic call (Test System: AMES SALMONELLA TYPHIMURIUM, Strain/Indicator: TA97, Metabolic Activation: RAT, LIVER, S-9, AROCLOR 1254, Method: STANDARD PLATE) was “inactive; negative” and the mutagenic call (Test System: AMES SALMONELLA TYPHIMURIUM, Strain/Indicator: TA97, Metabolic Activation: RAT, LIVER, S-9, DI(2-ETHYLHEXYL)PHTHALATE, Method: STANDARD PLATE) was “inactive; negative”. The mutagenic call [1] was “inactive; negative”, the mutagenic call [2] was “inactive; negative” and the mutagenic call (Test System: AMES SALMONELLA TYPHIMURIUM, Strain/Indicator: TA98, Metabolic Activation: RAT, LIVER, S-9, DI(2-ETHYLHEXYL)PHTHALATE, Method: STANDARD PLATE) was “inactive; negative”. For the same compound, the mutagenic call [3] was “inactive; negative”, the mutagenic call [4] was “inactive; negative” and the mutagenic call (Test System: AMES SALMONELLA TYPHIMURIUM, Strain/Indicator: TA100, Metabolic Activation: RAT, LIVER, S-9, DI(2-ETHYLHEXYL)PHTHALATE, Method: STANDARD PLATE) was “inactive; negative”. The mutagenic call [5] was “inactive; negative”, the mutagenic call (Test System: AMES SALMONELLA TYPHIMURIUM, Strain/Indicator: TA102, Metabolic Activation: RAT, LIVER, S-9, AROCLOR 1254, Method: STANDARD PLATE) was “inactive; negative” and the mutagenic call (Test System: AMES SALMONELLA TYPHIMURIUM, Strain/Indicator: TA102, Metabolic Activation: RAT, LIVER, S-9, DI(2-ETHYLHEXYL)PHTHALATE, Method: STANDARD PLATE) was “inactive; negative”.

With `C1=Cc2c(ccc3ccc4ccccc4c23)C1` the mutagenic call [4] was “active; positive”.

For `CC/C=C\CC/C=C/C=O`, the mutagenic call (Test System: AMES SALMONELLA TYPHIMURIUM, Strain/Indicator: TA100, Metabolic Activation: NONE, Method: PREINCUBATION) was “inactive; negative”, the mutagenic call (Test System: AMES SALMONELLA TYPHIMURIUM, Strain/Indicator: TA100, Metabolic Activation: NONE, Method: PREINCUBATION (THREEFOLD CELL DENSITY)) was “inactive; negative” and the mutagenic call (Test System: AMES SALMONELLA TYPHIMURIUM, Strain/Indicator: TA100, Metabolic Activation: RAT, LIVER, S-9, AROCLOR 1254, Method: PREINCUBATION (THREEFOLD CELL DENSITY)) was “inactive; negative”.

For `CC(=O)CN(COC(C)=O)N=O`, the mutagenic call [6] was “active; positive”.

With `O=C(/C=C/c1ccccc1)c1ccc(Br)cc1` the mutagenic call [1] was “inactive; negative”, the mutagenic call [2] was “inactive; negative” and the mutagenic call [3] was “inactive; negative”. For the same compound, the mutagenic call [4] was “inactive; negative”.

`NN` was tested, and the mutagenic call (End Point: IN VITRO CHROMOSOMAL ABERRATIONS, Test System: CHL CELLS, Metabolic Activation: NONE) was “active; positive (structural changes)”, the mutagenic call (End Point: IN VITRO CHROMOSOMAL ABERRATIONS, Test System: CHL CELLS, Metabolic Activation: RAT, LIVER, S-9, SODIUM PHENOBARBITAL AND 5,6-BENZOFLAVONE) was “active; positive (structural changes)” and the mutagenic call (Test System: AMES SALMONELLA TYPHIMURIUM, Strain/Indicator: G46, Metabolic Activation: HAMSTER, LIVER, HOMOGENATE, Method: PREINCUBATION) was “active; positive”. The mutagenic call (Test System: AMES SALMONELLA TYPHIMURIUM, Strain/Indicator: G46, Metabolic Activation: MOUSE, LIVER, HOMOGENATE, Method: PREINCUBATION) was “active; positive”, the mutagenic call (Test System: AMES SALMONELLA TYPHIMURIUM, Strain/Indicator: G46, Metabolic Activation: RAT, LIVER, HOMOGENATE, Method: PREINCUBATION) was “active; positive” and the mutagenic call (Test System: AMES SALMONELLA TYPHIMURIUM, Strain/Indicator: TA98, Metabolic Activation: RAT LIVER S-9, PHENOBARBITAL AND BETA-NAPHTHOFLAVONE, Method: PREINCUBATION) was “inactive; negative”. For the same compound, the mutagenic call (Test System: AMES SALMONELLA TYPHIMURIUM, Strain/Indicator: TA100, Metabolic Activation: RAT LIVER S-9, PHENOBARBITAL AND BETA-NAPHTHOFLAVONE, Method: PREINCUBATION) was “inactive; negative”, the mutagenic call (Test System: AMES SALMONELLA TYPHIMURIUM, Strain/Indicator: TA102, Metabolic Activation: NONE, Method: PREINCUBATION) was “active; positive” and the mutagenic call [5] was “inactive; negative”. For the same compound, the mutagenic call (Test System: AMES SALMONELLA TYPHIMURIUM, Strain/Indicator: TA1535, Metabolic Activation: HAMSTER, LIVER, HOMOGENATE, Method: PREINCUBATION) was “active; positive”, the mutagenic call (Test System: AMES SALMONELLA TYPHIMURIUM, Strain/Indicator: TA1535, Metabolic Activation: MOUSE, LIVER, HOMOGENATE, Method: PREINCUBATION) was “active; positive” and the mutagenic call [6] was “active; positive”. The mutagenic call (Test System: AMES SALMONELLA TYPHIMURIUM, Strain/Indicator: TA1535, Metabolic Activation: RAT LIVER S-9, PHENOBARBITAL AND BETA-NAPHTHOFLAVONE, Method: PREINCUBATION) was “active; positive”, the mutagenic call (Test System: AMES SALMONELLA TYPHIMURIUM, Strain/Indicator: TA1535, Metabolic Activation: RAT, LIVER, HOMOGENATE, Method: PREINCUBATION) was “active; positive” and the mutagenic call (Test System: AMES SALMONELLA TYPHIMURIUM, Strain/Indicator: TA1537, Metabolic Activation: NONE, Method: PREINCUBATION) was “inactive; negative”. For the same compound, the mutagenic call (Test System: AMES SALMONELLA TYPHIMURIUM, Strain/Indicator: TA1537, Metabolic Activation: RAT LIVER S-9, PHENOBARBITAL AND BETA-NAPHTHOFLAVONE, Method: PREINCUBATION) was “inactive; negative”, the mutagenic call (Test System: AMES SALMONELLA TYPHIMURIUM, Strain/Indicator: TA2638, Metabolic Activation: NONE, Method: STANDARD PLATE) was “inactive; negative” and the mutagenic call (Test System: E. COLI, Strain/Indicator: WP2 (PKM101), Metabolic Activation: NONE, Method: STANDARD PLATE) was “active; positive”. For the same compound, the mutagenic call (Test System: E. COLI, Strain/Indicator: WP2 UVRA (PKM101), Metabolic Activation: NONE, Method: STANDARD PLATE) was “active; positive”, the mutagenic call (Test System: E. COLI, Strain/Indicator: WP2 UVRA, Metabolic Activation: NONE, Method: PREINCUBATION) was “active; positive” and the mutagenic call (Test System: E. COLI, Strain/Indicator: WP2 UVRA, Metabolic Activation: RAT, LIVER, MICROSOMES, PHENOBARBITAL, Method: PREINCUBATION) was “active; positive”. The mutagenic call (Test System: E.COLI, Strain/Indicator: WP2UVRA, Metabolic Activation: NONE, Method: PREINCUBATION) was “active; positive” and the mutagenic call (Test System: E.COLI, Strain/Indicator: WP2UVRA, Metabolic Activation: RAT LIVER S-9, PHENOBARBITAL AND BETA-NAPHTHOFLAVONE, Method: PREINCUBATION) was “active; positive”.

With `O=[N+]([O-])c1cc2c3c(c1)CCc1cccc(c1-3)CC2` the mutagenic call (Test System: AMES SALMONELLA TYPHIMURIUM, Strain/Indicator: TA98(1,8-DNP6), Metabolic Activation: NONE, Method: STANDARD PLATE) was “active; positive”, the mutagenic call (Test System: AMES SALMONELLA TYPHIMURIUM, Strain/Indicator: TA98(NR), Metabolic Activation: NONE, Method: STANDARD PLATE) was “active; positive” and the mutagenic call [1] was “active; positive”.

`Cc1cccc(NS(=O)(=O)c2cccc3cccnc23)c1` was tested, and the mutagenic call [1] was “inactive; negative”, the mutagenic call [2] was “inactive; negative” and the mutagenic call [3] was “inactive; negative”. The mutagenic call [4] was “inactive; negative”, the mutagenic call [7] was “inactive; negative” and the mutagenic call (Test System: AMES SALMONELLA TYPHIMURIUM, Strain/Indicator: TA1535, Metabolic Activation: RAT, LIVER, S-9, AROCLOR 1254, Method: STANDARD PLATE) was “inactive; negative”. For the same compound, the mutagenic call (Test System: AMES SALMONELLA TYPHIMURIUM, Strain/Indicator: TA1537, Metabolic Activation: NONE, Method: STANDARD PLATE) was “inactive; negative” and the mutagenic call (Test System: AMES SALMONELLA TYPHIMURIUM, Strain/Indicator: TA1537, Metabolic Activation: RAT, LIVER, S-9, AROCLOR 1254, Method: STANDARD PLATE) was “inactive; negative”.

In the case of `COc1nsc2cc(OCC3CO3)ccc12` (centres undefined), the mutagenic call [3] is reported as “active; positive”.

With `C=C1C[C@@]23CC[C@H]4[C@@](C)(CCC[C@@]4(C)C(=O)O)[C@@H]2CC[C@]1(O[C@@H]1O[C@H](CO)[C@@H](O)[C@H](O)[C@H]1O)C3` the mutagenic call (Test System: AMES SALMONELLA TYPHIMURIUM, Strain/Indicator: TM677, Metabolic Activation: RAT, LIVER, S-9, AROCLOR 1254, Method: PREINCUBATION) was “active; positive”.

With `CN(Cc1ccc(Cl)cc1)N=O` the mutagenic call (Test System: AMES SALMONELLA TYPHIMURIUM, Strain/Indicator: TA1535, Metabolic Activation: HAMSTER, LIVER, S-9, AROCLOR 1254, Method: STANDARD PLATE) was “active; positive” and the mutagenic call [7] was “inactive; negative”.
